According to US8034804B2 (N.V. Organon, priority 2001, dated 2011):

Tests used:
[1] = test system: AMPA receptor; experiment: Patch clamp whole cell electrophysiology: glutamate-evoked steady state current in cultured hippocampal neurons; type: cell-based; details: 10 μM compound in extracellular solution; 0.5 mM glutamate; rat hippocampal neurons voltage clamped at −60 mV
Source text: The (pyrido/thieno)-[f]-oxazepin-5-one derivatives of the invention are AMPA receptor positive modulators, as can be determined by an increase in steady state current induced by application of glutamate in a conventional whole cell patch clamp method when a (pyrido/thieno)-[f]-oxazepin-5-one of the invention is present (see Example 10 and Table I). The compounds may be used in the treatment of neurological and psychiatric diseases where an enhancement of synaptic responses mediated by AMPA receptors is required, such as neurodegenerative disorders, cognitive or memory dysfunction, memory and learning disorders such as can result from ageing, attention disorder, trauma, stroke, epilepsy, Alzheimer's disease, depression, schizophrenia, psychotic disorders, sexual dysfunctions, autism, or a disorder or disease resulting from neurotic agents or substance abuse, and alcohol intoxication.
Hippocampal neuronal cultures were prepared from embryonic or 1-3 day old Sprague-Dawley rats which were decapitated and the heads immediately placed in ice cold HBS (HEPES Buffered Solution: 130 mM NaCl, 5.4 mM KCl, 10 mM HEPES, 1.0 mM MgCl2, 1.8 CaCl2, 25 mM glucose, adjusted to pH 7.4). The whole brain was excised and placed on pre-sterilised filter paper, soaked in HBS and the cerebellum was removed. The brain was chopped and an enzyme solution (0.5 mg/ml protease X and 0.5 mg/ml protease in HBS) was added and subsequently left for 40 minutes at room temperature to digest before trituration. Cells were resuspended and then counted to give a final concentration of 1.5×10^6 per ml. Cells were aliquoted onto poly-D-lysine- and Matrigel®-treated coverslips and left to incubate at 37° C. for 1-2 hours. When incubation was complete, 1 ml of growth medium was added to each well containing a coverslip and the cells were returned to the incubator. After 3-5 days the mitotic inhibitor cytosine arabinoside (5 μM) was added and the cells returned to the incubator until required.
The whole cell configuration of the patch clamp technique (Hamill et al., Pflügers Arch. 1981, 39, 85-100) was used to measure glutamate-evoked currents from postnatal hippocampal neurons maintained in culture for 4-7 days. A glass coverslip containing the culture was transferred to the recording chamber (Warner Instrument Corp., Hamden, Conn.) mounted on the stage of an inverted microscope (Nikon, Kingston, UK). The recording chamber contained 1-2 ml extracellular solution (145 mM NaCl, 5.4 mM KCl, 10 mM HEPES, 0.8 mM MgCl2, 1.8 CaCl2, 10 mM glucose and 30 mM sucrose, adjusted to pH 7.4 with 1 M NaOH) and was constantly perfused at a rate of 1 ml/min. Recordings were performed at room temperature (20-22° C.) using an Axopatch 200B amplifier (Axon Instruments Ltd., Foster City, Calif.). Data acquisition and analysis was performed using Signal software (Cambridge Electronic Design Ltd., Cambridge, UK). Pipettes were manufactured from GC120F-10 glass (Harvard Apparatus, Edenbridge UK) using a model P-87 electrode puller (Sutter Instruments Co., Novarto, Calif.). The patch electrodes had typical resistances of between 3-5 MΩ when filled with intracellular solution (140 mM potassium gluconate, 20 mM HEPES, 1.1 mM EGTA, 5 mM phosphocreatine, 3 mM ATP, 0.3 mM GTP, 0.1 mM CaCl2, 5 mM MgCl2, adjusted to pH 7.4 with 1 M KOH).
Cells were voltage clamped at a holding potential of −60 mV and glutamate (0.5 mM) was applied using a 12 channel semi-rapid drug application device (DAD-12. Digitimer Ltd., Welwyn Garden city, UK). The agonist glutamate was applied for 1 s every 30 s. […] Between applications saline flowed to clear any dead volume in the system. For each application steady-state currents were plotted from the difference in baseline and steady state current and averaged over 300 ms.
Two solutions of the compound in extracellular solution were made up, one with glutamate and one without. […]

[2] = test system: Mice; experiment: Inhibition of amphetamine-induced hyperlocomotion; type: in vivo, mouse; details: drug sc 30 minutes before 1.5 mg/kg d-amphetamine sulphate sc, locomotor activity measured for 60 minutes
Description: Mice were injected sc with drug treatment or vehicle control. 30 Minutes later mice were injected sc with 1.5 mg/kg d-amphetamine sulphate or saline and immediately placed in infra red locomotor boxes where locomotor activity (long duration beam breaks of two adjacent beams) and stereotypic behaviour (repetitive short-duration beam breaks) were measured for a period of 60 minutes. The experiment was analysed using a 3-Way ANOVA with experimental session, infra red locomotor boxes and treatment as factors, and in the case of treatment, significant effects were followed up using a Tukey (HSD) test.

[3] = test system: Rats; experiment: Differential reinforcement of low rates of responding, 72 seconds (DRL72); type: in vivo, rat; details: intraperitoneal route 30 minutes before 60 minute test session
Description: Rats are pretrained in a standard operant chamber to perform a DRL72 procedure according to Andrews et al (Andrews J S, Jansen J H M, Linders S, Princen A, Drinkenburg WHIM, Coenders C J H and Vossen J H M (1994). Effects of imipramine and mirtazapine on operant performance in rats. Drug Development Research, 32, 58-66). The test session lasts for 60 minutes with no limit to the number of trials. Each trial begins with the stimulus light on above the active lever. A response on the lever only results in delivery of a pellet if 72 seconds has elapsed. A response on the lever before 72 seconds has elapsed resets the timer and is not rewarded. The number of pellets earned and the number of lever presses is recorded and used to calculate an efficiency score. Test compounds are administered via the intraperitoneal route 30 minutes before the start of the test session. Antidepressants increase the number of pellets earned and decrease the number of lever presses.

Compound | % Increase in steady state current at 10 μM [1] | Inhibition of amphetamine induced hyperlocomotion [2] | DRL72 operant performance (pellets earned, lever presses): antidepressant like profile [3]
O=C1c2sccc2OC[C@@H]2CCCN12 [Example 1] | 32% | inhibited amphetamine induced hyperlocomotion | 
O=C1c2ccc(C(F)(F)F)nc2OC[C@@H]2CCCN12 [Example 2B, (S)-8-trifluoromethyl-2,3,11,11a-tetrahydro-1H,5H-pyrrolo[2,1-c]pyrido[3,2-f][1,4]-oxazepine-5-one] | 21% |  | 
O=C1c2ccc(C(F)(F)F)nc2OC[C@H]2CCCN12 [Example 2C, (R)-8-trifluoromethyl-2,3,11,11a-tetrahydro-1H,5H-pyrrolo[2,1-c]pyrido[3,2-f][1,4]-oxazepine-5-one] | 19% |  | 
Cc1ccc2c(n1)OCC1CCCN1C2=O.Cl [Example 3, (S)-8-Methyl-2,3,11,11a-tetrahydro-1H,5H-pyrrolo[2,1-c]pyrido[3,2-f][1,4]oxazepine-5-one Hydrochloride Salt] | 12% |  | 
O=C1c2ccc(Cl)nc2OC[C@@H]2CCCN12 [Example 4A, (S)-8-Chloro-2,3,11,11a-tetrahydro-1H,5H-pyrrolo[2,1-c]pyrido[3,2-f][1,4]oxazepine-5-one] | 16% |  | 
O=C1c2ccc(Cl)nc2OC[C@H]2CCCN12 [Example 4B, (R)-8-Chloro-2,3,11,11a-tetrahydro-1H,5H-pyrrolo[2,1-c]pyrido[3,2-f][1,4]oxazepine-5-one] | 29% |  | 
O=C1c2cc(Cl)sc2OC[C@@H]2CCCN12 [Example 5, (S)-7-Chloro-2,3,10,10a-tetrahydro-1H,5H-pyrrolo[2,1-c]thieno[3,2-f][1,4]oxazepine-5-one] | 16% |  | 
O=C1c2cc(Cl)sc2OC[C@H]2CCCN12 [Example 6A, (R)-7-Chloro-2,3,10,10a-tetrahydro-1H,5H-pyrrolo[2,1-c]thieno[3,2-f][1,4]oxazepine-5-one] | 20% |  | 
(+)-6,6a,7,8,9,10-hexahydro-12H-pyrido[2,1-c]pyrido[3,2-f][1,4]oxazepine-12-one [Example 4D] | 13% |  | 
(S)-2,3,11,11a-tetrahydro-1H,5H-pyrrolo[2,1-c]pyrido[3,2-f][1,4]oxazepine-5-one | 22% | inhibited amphetamine induced hyperlocomotion | antidepressant like profile
(S)-8-Methoxy-2,3,11,11a-tetrahydro-1H,5H-pyrrolo[2,1-c]Pyrido[3,2-f][1,4]oxazepine-5-one [Example 7] | 22% |  | 
